ChEMBL document CHEMBL2113921, “Open Source Malaria Deposition 1. http://malaria.ourexperiment.org” (2013)
≈ marks a conversion by molar mass, not a printed value. Calls of active or inactive are those of the source. The calls are words filed in the database; no cut-off is given here.

Assays:
Plasmodium falciparum [1] = assay: OSM: Percent inhibition of Plasmodium falciparum 3D7 growth at 40 uM. Avery Group Griffith.; assay type: functional
Plasmodium falciparum K1 [2] = assay: OSM: Inhibition of Plasmodium falciparum K1 growth. IC50 values determined from 21 point dose response curves. Avery Group Griffith.; assay type: functional, organism-based
[3] = OSM: Microsomal stability: 0.5 uM substrate, 0.4 mg/mL protein, NADPH cofactor. Analysed by LC/MS. Degradation half life (min).; assay type: ADME, Microsome; conditions: human, microsomes
[4] = OSM: HEK293 cytotoxicity assay. Duplicate point single experiment at 120 uM. Avery Group, Griffith.; assay type: toxicity, cell-based; conditions: human, HEK293 cells; read-out: Inhibition
[5] = OSM: Microsomal stability: 0.5 uM substrate, 0.4 mg/mL protein, NADPH cofactor). Analysed by LC/MS. In vitro CLint (uL/min/mg protein).; assay type: ADME, Microsome; conditions: human, microsomes
[6] = OSM: Microsomal stability: 0.5 uM substrate, 0.4 mg/mL protein, NADPH cofactor. Analysed by LC/MS. Degradation rate classification.; assay type: ADME, Microsome; conditions: human, microsomes
Plasmodium falciparum [7] = assay: OSM: Inhibition of Plasmodium falciparum 3D7 growth. IC50 values determined from 21 point dose response curves. Avery Group Griffith.; assay type: functional, organism-based
Plasmodium berghei = assay: OSM: Mice are infected intravenously with parasitized red blood cells on day 0 (2 x 10^7 parasitized erythrocytes per ml). Experimental mice are generally treated at 4, 24, 48, and 72 hours post-infection with an oral dose of the compound (50 mg/kg, 4-day test by Peters) and are compared to an infected control group for reduction in parasitaemia on day 4 (96 hours post-infection) as a percentage.; assay type: functional, organism-based; conditions: Mus musculus; Swiss; Plasma
[8] = OSM: Kinetic solubility pH 2 0.01 M HCl ug/mL.; assay type: ADME
Plasmodium falciparum [9] = assay: OSM: Inhibition of Plasmodium falciparum 3D7 growth using a SYBR green I fluorescence based assay. GSK Tres Cantos.; assay type: functional, organism-based
[10] = OSM: Kinetic solubility pH 6.5 isotonic phosphate buffer.; assay type: ADME
Plasmodium falciparum [11] = assay: OSM: Percent inhibition of Plasmodium falciparum 3D7 growth at 80 uM. Avery Group Griffith.; assay type: functional
[12] = OSM: HEK293 cytotoxicity assay. IC50 values determined from 21 point dose response curves. Avery Group Griffith.; assay type: toxicity, cell-based; conditions: human, HEK293 cells
Plasmodium falciparum [13] = assay: OSM: Inhibition of Plasmodium falciparum 3D7 growth using a SYBR green I fluorescence based assay. Dose response curves were generated comprising of 8 points using a 2-fold serial dilution for the maximum final concentration of 1000 nM. Ralph Group, Bio21.; assay type: functional, organism-based
[14] = molecular target: Voltage-gated inwardly rectifying potassium channel KCNH2 (Homo sapiens, UniProt Q12809); assay: OSM: hERG, IC50 uM (Essen Bioscience): IonWorks patch clamp electrophysiology. 8 point concentration-response curves were generated using 3-fold serial dilutions from the maximum final assay concentration of 33 uM.; assay type: functional
Plasmodium falciparum [15] = assay: OSM: CSIR assay 3D7: Compounds were tested for inhibition of Plasmodium falciparum growth using a SYBR green I fluorescence based assay.; assay type: functional, organism-based
Plasmodium falciparum K1 [16] = assay: OSM: CSIR assay K1: Compounds were tested for inhibition of Plasmodium falciparum growth using a SYBR green I fluorescence based assay.; assay type: functional, organism-based
Plasmodium falciparum [17] = assay: OSM: Percent inhibition of Plasmodium falciparum 3D7 growth at 100 uM. Avery Group Griffith.; assay type: functional
Plasmodium falciparum [18] = assay: OSM: Late stage gametocytes. IC50 values determined from 21 point dose response curves. Avery Group Griffith.; assay type: functional, organism-based; conditions: Pfs16-GFP transgenic NF54

Sequence of Voltage-gated inwardly rectifying potassium channel KCNH2 (Q12809 whole entry): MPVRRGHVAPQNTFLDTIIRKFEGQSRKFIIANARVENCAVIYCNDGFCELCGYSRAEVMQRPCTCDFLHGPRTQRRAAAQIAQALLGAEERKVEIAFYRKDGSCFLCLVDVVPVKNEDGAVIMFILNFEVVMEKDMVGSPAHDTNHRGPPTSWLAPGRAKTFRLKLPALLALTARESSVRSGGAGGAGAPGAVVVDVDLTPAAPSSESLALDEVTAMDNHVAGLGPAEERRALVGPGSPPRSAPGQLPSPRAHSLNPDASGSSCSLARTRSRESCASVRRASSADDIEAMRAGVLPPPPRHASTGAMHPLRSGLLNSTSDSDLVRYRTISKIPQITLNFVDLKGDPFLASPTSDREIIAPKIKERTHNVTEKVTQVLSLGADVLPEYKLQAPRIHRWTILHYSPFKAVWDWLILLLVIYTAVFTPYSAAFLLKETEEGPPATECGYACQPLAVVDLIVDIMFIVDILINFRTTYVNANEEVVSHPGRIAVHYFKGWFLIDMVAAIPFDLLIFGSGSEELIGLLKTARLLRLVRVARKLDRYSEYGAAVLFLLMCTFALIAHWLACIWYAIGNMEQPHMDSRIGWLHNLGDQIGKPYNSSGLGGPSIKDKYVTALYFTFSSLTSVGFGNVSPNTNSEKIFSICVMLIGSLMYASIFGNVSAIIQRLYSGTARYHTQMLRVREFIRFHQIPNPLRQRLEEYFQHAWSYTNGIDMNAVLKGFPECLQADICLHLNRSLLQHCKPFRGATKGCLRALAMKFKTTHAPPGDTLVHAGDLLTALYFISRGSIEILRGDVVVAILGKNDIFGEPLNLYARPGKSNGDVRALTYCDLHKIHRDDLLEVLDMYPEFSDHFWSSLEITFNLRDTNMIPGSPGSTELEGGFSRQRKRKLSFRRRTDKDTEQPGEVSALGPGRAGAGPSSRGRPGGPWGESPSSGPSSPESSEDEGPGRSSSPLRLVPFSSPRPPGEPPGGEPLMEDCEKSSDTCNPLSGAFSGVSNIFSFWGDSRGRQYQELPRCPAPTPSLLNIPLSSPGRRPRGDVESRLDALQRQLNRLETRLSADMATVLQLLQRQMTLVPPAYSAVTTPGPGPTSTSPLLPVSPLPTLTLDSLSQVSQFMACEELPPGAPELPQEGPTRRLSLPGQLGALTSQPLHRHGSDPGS

SMILES: Cc1cccc(-n2c(C)cc(C(=O)N(C)CC(=O)Nc3cc(C)on3)c2C)c1
- inhibition at 40 µM (Plasmodium falciparum [1]): 85%

SMILES: Cc1cc(C(=O)OCC(=O)Nc2c(C)n(C)n(-c3ccccc3)c2=O)c(C)n1-c1ccc(F)cc1
- IC50 (Plasmodium falciparum K1 [2]): 152 nM
- half-life at 0.5 µM [3]: 29 min
- cytotoxicity at 120 µM [4]: 20%
- microsomal CLint at 0.5 µM [5]: 60 µL/min/mg
- Relative metabolic rate [6]: Moderate
- IC50 (Plasmodium falciparum [7]): 345 nM
- Reduced_parasitemia (Plasmodium berghei): inactive
- solubility kinetic [8]: 12.5 µg/mL (≈ 26.2 µM)
- IC50 (Plasmodium falciparum [9]): 245 nM
- solubility kinetic [10]: 12.5 µg/mL (≈ 26.2 µM)

SMILES: Cc1cc(C(=O)CCC(N)=O)c(C)n1-c1ccc(F)cc1
- inhibition at 40 µM (Plasmodium falciparum [1]): 61%

SMILES: Cc1c(NC(=O)CNC(=O)c2ccccc2)c(=O)n(-c2ccccc2)n1C
- inhibition at 80 µM (Plasmodium falciparum [11]): 0%
- IC50 (Plasmodium falciparum [9]): > 5000 nM

SMILES: CCc1nc(N)nc(N)c1-c1ccc(Cl)cc1 [PYRIMETHAMINE]
- IC50 (Plasmodium falciparum K1 [2]): 11900 nM
- IC50 (Plasmodium falciparum [7]): 8.95 nM
- IC50 [12]: 13900 nM

SMILES: Cc1cc(/C=C2\SC(=Nc3ccccc3)NC2=O)c(C)n1-c1ccccc1
- IC50 (Plasmodium falciparum [13]): 11 nM
- IC50 [14]: > 33000 nM
- IC50 (Plasmodium falciparum [7]): 26 nM
- Reduced_parasitemia (Plasmodium berghei): inactive
- IC50 (Plasmodium falciparum [9]): 36 nM

SMILES: Cc1cc(C(=O)OCC(N)=O)c(C)n1-c1ccc(F)cc1
- IC50 (Plasmodium falciparum K1 [2]): 375 nM
- IC50 [14]: > 33000 nM
- half-life at 0.5 µM [3]: 59 min
- cytotoxicity at 120 µM [4]: 20%
- IC50 (Plasmodium falciparum [15]): 581 nM
- microsomal CLint at 0.5 µM [5]: 29 µL/min/mg
- Relative metabolic rate [6]: Moderate
- IC50 (Plasmodium falciparum [7]): 404 nM
- IC50 (Plasmodium falciparum K1 [16]): 641 nM
- Reduced_parasitemia (Plasmodium berghei): inactive
- solubility kinetic [8]: 50 µg/mL (≈ 172 µM)
- IC50 (Plasmodium falciparum [9]): 818 nM
- solubility kinetic [10]: 50 µg/mL (≈ 172 µM)

SMILES: Cc1cc(CN2CCCC2)c(C)n1-c1ccc(F)cc1
- inhibition at 40 µM (Plasmodium falciparum [1]): 96%

SMILES: CCN(CC)CCCC(C)Nc1ccnc2cc(Cl)ccc12 (configuration not stated) [CHLOROQUINE]
- IC50 (Plasmodium falciparum K1 [2]): 266 nM
- cytotoxicity at 120 µM [4]: 100%
- IC50 (Plasmodium falciparum K1 [16]): 235 nM

SMILES: Cc1cc(C(=O)Nc2c(C)n(C)n(-c3ccccc3)c2=O)c(C)n1-c1ccc(F)cc1
- inhibition at 80 µM (Plasmodium falciparum [11]): 100%

SMILES: CNC(=O)CN(C)C(=O)c1cc(C)n(-c2ccc(Br)cc2)c1C
- inhibition at 40 µM (Plasmodium falciparum [1]): 70%

SMILES: O=C1N=C(Nc2ccccc2)S/C1=C\c1ccccc1
- inhibition at 100 µM (Plasmodium falciparum [17]): 100%
- IC50 (Plasmodium falciparum [13]): > 1000 nM
- IC50 (Plasmodium falciparum [9]): > 5000 nM

SMILES: Cc1cc(C(=O)NCC(N)=O)c(C)n1-c1ccc(F)cc1
- IC50 (Plasmodium falciparum [13]): > 1000 nM
- inhibition at 80 µM (Plasmodium falciparum [11]): 25%
- IC50 (Plasmodium falciparum [9]): > 5000 nM

SMILES: COc1ccc(-c2cc3ncnc(Oc4ccc(S(=O)(=O)N5CCOCC5)cc4)c3s2)cc1
- inhibition at 40 µM (Plasmodium falciparum [1]): 80%

SMILES: CC[C@H](C)[C@H](NC(=O)[C@H]([C@@H](C)CC)N(C)C(C)=O)C(=O)N[C@H](C(=O)N[C@@H](CC(C)C)C(=O)[C@@]1(C)CO1)[C@@H](C)O [EPOXOMYCIN]
- IC50 (Plasmodium falciparum K1 [2]): 2.8 nM
- IC50 (Plasmodium falciparum [7]): 4.2 nM
- IC50 (Plasmodium falciparum [18]): 0.3 nM
- IC50 [12]: 33.6 nM

SMILES: Cc1cc(/C=C2\S/C(=N\c3ccccc3)NC2=O)c(C)n1-c1cc(C(F)(F)F)cc(C(F)(F)F)c1
- IC50 (Plasmodium falciparum [13]): 5 nM
- half-life at 0.5 µM [3]: > 250 min
- microsomal CLint at 0.5 µM [5]: < 7 µL/min/mg
- Relative metabolic rate [6]: Low
- IC50 (Plasmodium falciparum [7]): 1 nM
- IC50 (Plasmodium falciparum [18]): 3 nM
- IC50 (Plasmodium falciparum [9]): 7 nM
- solubility kinetic [10]: 4 µg/mL (≈ 7.85 µM)

SMILES: Cc1cc(/C=C2\S/C(=N\c3ccccc3)N(c3ccccc3)C2=O)c(C)n1-c1cccc(F)c1
- IC50 (Plasmodium falciparum [15]): 3200 nM
- IC50 (Plasmodium falciparum K1 [16]): > 5000 nM
